Laboratory results from paper PMC10743905, “Design, Synthesis, and In Vitro and In Vivo Bioactivity Studies of Hydrazide–Hydrazones of 2,4-Dihydroxybenzoic Acid” (International Journal of Molecular Sciences, 2023).
In brackets after ≈: the same amount, converted by molar mass. Read-outs that look alike come from different tables or passages of the source.

Assays:
[1] = system: Salmonella typhimurium ATCC 14028; experiment: Broth microdilution MIC/MBC; assay type: cell-based; details: for MBC / MIC: Salmonella enterica
Source text: (§1) In vitro antimicrobial activity assays - Methodology
(§2) The examined compounds 1 - 24 were screened in vitro for antibacterial and antifungal activities using the broth microdilution method according to procedure reported earlier by our research group and European Committee on Antimicrobial Susceptibility Testing (EUCAST) and Clinical and Laboratory Standards Institute (CLSI) guidelines against a panel of reference and clinical or saprophytic strains of microorganisms, in-cluding Gram-positive bacteria, Staphylococcus aureus ATCC 43300 (Methicillin Resistant S. aureus – MRSA), Staphylococcus aureus ATCC 29213 (Methicillin Susceptible S. aureus – MSSA), Staphylococcus epidermidis ATCC 12228, Enterococcus faecalis ATCC 29212, Micro-coccus luteus ATCC 10240, Bacillus subtilis ATCC 6633 and Bacillus cereus ATCC 10876), Gram-negative bacteria (Bordetella bronchiseptica ATCC 4617, Escherichia coli ATCC 25922, Klebsiella pneumoniae ATCC 13883, Proteus mirabilis ATCC 12453, Salmonella typhimurium ATCC 14028 and Pseudomonas aeruginosa ATCC 9027) and fungi belonging to yeasts (Can-dida albicans ATCC 10231, Candida albicans ATCC 2091, Candida parapsilosis ATCC 22019, Candida glabrata ATCC 90030 and Candida krusei ATCC 14243). The microorganisms be-longing to ATCC came from American Type Culture Collection, routinely used for the evaluation of antimicrobials. […]
(§3) Samples containing examined compounds were dissolved in dimethyl sulfoxide (DMSO). […]
(§4) Subsequently, the MIC (Minimal Inhibitory Concentration) of the compounds was ex-amined by the microdilution broth method, using their two-fold dilutions in Mueller- […]
(§5) Hinton broth or (for bacteria) and RPMI 1640 broth with MOPS (for fungi) prepared in 96-well polystyrene plates. Final concentrations of the compounds ranged from 1000 to 0.488 µg/ml. Microbial suspensions were prepared in 0.85% NaCl with an optical density of 0.5 McFarland standard. Next each bacterial or fungal suspension was added per each well containing broth and various concentrations of the examined compounds. After incuba-

[2] = system: Micrococcus luteus ATCC 10240; experiment: Broth microdilution MIC/MBC; assay type: cell-based; details: for MBC: ATCC10240
Source text: as §1, §2, §3, §4, §5

[3] = system: Proteus mirabilis ATCC 12453; experiment: Broth microdilution MIC/MBC; assay type: cell-based; details: ATCC12453
Source text: as §1, §2, §3, §4, §5

[4] = system: Pseudomonas aeruginosa ATCC 9027; experiment: Broth microdilution MIC/MBC; assay type: cell-based; details: ATCC9027
Source text: as §1, §2, §3, §4, §5

[5] = system: Staphylococcus aureus ATCC 29213; experiment: Broth microdilution MIC/MBC; assay type: cell-based; details: for MBC / MIC: ATCC29213
Source text: as §1, §2, §3, §4, §5

[6] = system: Staphylococcus aureus ATCC 43300; experiment: Broth microdilution MIC/MBC; assay type: cell-based; details: Staphylococcus aureus ATCC 43300 (MRSA)
Source text: as §1, §2, §3, §4, §5

[7] = system: Staphylococcus epidermidis ATCC 12228; experiment: Broth microdilution MIC/MBC; assay type: cell-based; details: for MBC: ATCC12228
Source text: as §1, §2, §3, §4, §5

[8] = system: Bacillus subtilis ATCC 6633; experiment: Broth microdilution MIC/MBC; assay type: cell-based; details: for MBC: ATCC6633
Source text: Detailed procedures are presented in the Supplementary Materials. […]
as §1
as §2, with “antimicrobials. All the used microbial cultures were first subcultured on nu-trient agar or Sabouraud agar at 35°C for 18-24 h or 30°C for 24-48 h for bacteria and fungi,” for “antimicrobials.”
(§6) The surface of Mueller-Hinton agar (for bacteria) and RPMI 1640 with MOPS (for fungi) were inoculated with the suspensions of bacterial or fungal species. Microbial suspensions were prepared in sterile saline with an optical density of McFarland standard scale 0.5.
(§7) Samples containing examined compounds were dissolved in dimethyl sulfoxide (DMSO).
(§8) Furthermore, bacterial and fungal suspensions were put onto Petri dishes with solid me-dia containing 2 mg/mL of the tested compounds followed incubation at 37°C for 24h and 30°C for 48h for bacteria and fungi, respectively. The inhibition of microbial growth was judged by comparison with a control culture prepared without any sample tested. Ciprof-loxacin, vancomycin, nitrofurantoin, cefuroxime, ampicillin or nystatin (Sigma) were used as a reference antibacterial or antifungal compounds, respectively.
as §4, §5

[9] = system: Bacillus cereus ATCC 10876; experiment: Broth microdilution MIC/MBC; assay type: cell-based; details: for MBC: ATCC10876
Source text: as §1
as §2, with “antimicrobials. All the used microbial cultures were first subcultured on nu-trient agar or Sabouraud agar at 35°C for 18-24 h or 30°C for 24-48 h for bacteria and fungi,” for “antimicrobials.”
as §6, §7, §8, §4, §5

[10] = system: Bordetella bronchiseptica ATCC 4617; experiment: Broth microdilution MIC/MBC; assay type: cell-based; details: ATCC4617
Source text: as §1
as §2, with “antimicrobials. All the used microbial cultures were first subcultured on nu-trient agar or Sabouraud agar at 35°C for 18-24 h or 30°C for 24-48 h for bacteria and fungi,” for “antimicrobials.”
as §6, §7, §8, §4, §5

[11] = system: Enterococcus faecalis ATCC 29212; experiment: Broth microdilution MIC/MBC; assay type: cell-based; details: for MBC: ATCC29212, read-out: MBC; for MIC: ATCC29212, read-out: MIC
Source text: as §1
as §2, with “antimicrobials. All the used microbial cultures were first subcultured on nu-trient agar or Sabouraud agar at 35°C for 18-24 h or 30°C for 24-48 h for bacteria and fungi,” for “antimicrobials.”
as §6, §7, §8, §4, §5

[12] = system: Escherichia coli ATCC 25922; experiment: Broth microdilution MIC/MBC; assay type: cell-based; details: ATCC25922
Source text: as §1
as §2, with “antimicrobials. All the used microbial cultures were first subcultured on nu-trient agar or Sabouraud agar at 35°C for 18-24 h or 30°C for 24-48 h for bacteria and fungi,” for “antimicrobials.”
as §6, §7, §8, §4, §5

[13] = system: Klebsiella pneumoniae ATCC 13883; experiment: Broth microdilution MIC/MBC; assay type: cell-based; details: ATCC13883
Source text: as §1
as §2, with “antimicrobials. All the used microbial cultures were first subcultured on nu-trient agar or Sabouraud agar at 35°C for 18-24 h or 30°C for 24-48 h for bacteria and fungi,” for “antimicrobials.”
as §6, §7, §8, §4, §5

[14] = system: Candida albicans ATCC 10231; experiment: Broth microdilution MIC/MFC; assay type: cell-based; details: for MIC: ATCC10231, read-out: MIC
Source text: as §1
as §2, with “antimicrobials. All the used microbial cultures were first subcultured on nu-trient agar or Sabouraud agar at 35°C for 18-24 h or 30°C for 24-48 h for bacteria and fungi,” for “antimicrobials.”
as §6, §7, §8, §4, §5

[15] = system: Candida albicans ATCC 2091; experiment: Broth microdilution MIC/MFC; assay type: cell-based; details: for MIC: ATCC2091, read-out: MIC
Source text: as §1
as §2, with “antimicrobials. All the used microbial cultures were first subcultured on nu-trient agar or Sabouraud agar at 35°C for 18-24 h or 30°C for 24-48 h for bacteria and fungi,” for “antimicrobials.”
as §6, §7, §8, §4, §5

[16] = system: Candida glabrata ATCC 90030; experiment: Broth microdilution MIC/MFC; assay type: cell-based; details: Nakaseomyces glabratus, ATCC90030, read-out: MIC
Source text: as §1
as §2, with “antimicrobials. All the used microbial cultures were first subcultured on nu-trient agar or Sabouraud agar at 35°C for 18-24 h or 30°C for 24-48 h for bacteria and fungi,” for “antimicrobials.”
as §6, §7, §8, §4, §5

[17] = system: Candida krusei ATCC 14243; experiment: Broth microdilution MIC/MFC; assay type: cell-based; details: Pichia kudriavzevii, ATCC14243, read-out: MIC
Source text: as §1
as §2, with “antimicrobials. All the used microbial cultures were first subcultured on nu-trient agar or Sabouraud agar at 35°C for 18-24 h or 30°C for 24-48 h for bacteria and fungi,” for “antimicrobials.”
as §6, §7, §8, §4, §5

[18] = system: Candida parapsilosis ATCC 22019; experiment: Broth microdilution MIC/MFC; assay type: cell-based; details: Lodderomyces parapsilosis, ATCC22019, read-out: MIC
Source text: as §1
as §2, with “antimicrobials. All the used microbial cultures were first subcultured on nu-trient agar or Sabouraud agar at 35°C for 18-24 h or 30°C for 24-48 h for bacteria and fungi,” for “antimicrobials.”
as §6, §7, §8, §4, §5

SMILES	MBC [1]	MIC [1]	MBC/MIC [2]	MBC [2]	MIC ([2]; ATCC10240, read-out: MIC)	MIC [3]	MIC [4]	MBC/MIC [5]	MBC [5]	MIC [5]	MIC [6]	MBC [7]	MIC ([7]; ATCC12228, read-out: MIC)	MBC/MIC [8]	MBC [8]	MIC ([8]; ATCC6633, read-out: MIC)	MIC ([9]; ATCC10876, read-out: MIC)	MIC [10]	MIC [12]	MIC [13]	also measured
O=C(O)c1cn(C2CC2)c2cc(N3CCNCC3)c(F)cc2c1=O [CIP, ciprofloxacin, reference compound]	0.06 µg/mL (≈ 0.181 µM)	0.06 µg/mL (≈ 0.181 µM)																			MBC/MIC [1]: 1
COc1cc(/C=N/NC(=O)c2ccc(O)cc2O)cc(I)c1O [Compound 16, 2,4-dihydroxy-N-[(4-hydroxy-3-iodo-5-methoxyphenyl)methylidene]benzohydrazide]		> 1000 µg/mL	> 4	> 1000 µg/mL	250 µg/mL (≈ 584 µM)	> 1000 µg/mL	> 1000 µg/mL	> 1	> 1000 µg/mL	1000 µg/mL (≈ 2340 µM)	> 1000 µg/mL	> 1000 µg/mL	1000 µg/mL (≈ 2340 µM)	> 4	> 1000 µg/mL	250 µg/mL (≈ 584 µM)	1000 µg/mL (≈ 2340 µM)	> 1000 µg/mL	> 1000 µg/mL	> 1000 µg/mL	MBC/MIC [7]: > 1; MBC/MIC [9]: > 1; MBC [9]: > 1000 µg/mL; MBC/MIC [11]: > 1; MBC [11]: > 1000 µg/mL; MIC [11]: 1000 µg/mL (≈ 2340 µM); MFC/MIC [14]: > 1; MFC ([14]; ATCC10231, read-out: MFC): > 1000 µg/mL; MIC [14]: 1000 µg/mL (≈ 2340 µM); MFC/MIC [15]: > 4; MFC ([15]; ATCC2091, read-out: MFC): > 1000 µg/mL; MIC [15]: 250 µg/mL (≈ 584 µM); MIC [16]: > 1000 µg/mL; MIC [17]: > 1000 µg/mL; MIC [18]: > 1000 µg/mL; melting point: 255 °C
Cc1ccccc1/C=N/NC(=O)c1ccc(O)cc1O [Compound 1, 2,4-dihydroxy-N-[(2-methylphenyl)methylidene]benzohydrazide]		> 1000 µg/mL	> 2	> 1000 µg/mL	500 µg/mL (≈ 1850 µM)	> 1000 µg/mL	> 1000 µg/mL	> 1	> 1000 µg/mL	1000 µg/mL (≈ 3700 µM)	1000 µg/mL (≈ 3700 µM)		> 1000 µg/mL	> 2	> 1000 µg/mL	500 µg/mL (≈ 1850 µM)	> 1000 µg/mL	> 1000 µg/mL	> 1000 µg/mL	> 1000 µg/mL	MBC [6]: > 1000 µg/mL; MBC/MIC [6]: > 1; MBC/MIC [11]: > 1; MBC [11]: > 1000 µg/mL; MIC [11]: 1000 µg/mL (≈ 3700 µM); MIC [14]: > 1000 µg/mL; MIC [15]: > 1000 µg/mL; MIC [16]: > 1000 µg/mL; MIC [17]: > 1000 µg/mL; MIC [18]: > 1000 µg/mL; melting point: 250 °C
O=C1CN(/N=C/c2ccc([N+](=O)[O-])o2)C(=O)N1 [NIT, nitrofurantoin, reference compound]	62.5 µg/mL (≈ 262 µM)	31.2 µg/mL (≈ 131 µM)		62.5 µg/mL (≈ 262 µM)	62.5 µg/mL (≈ 262 µM)	62.5 µg/mL (≈ 262 µM)					7.81 µg/mL (≈ 32.8 µM)	7.81 µg/mL (≈ 32.8 µM)	3.91 µg/mL (≈ 16.4 µM)		3.91 µg/mL (≈ 16.4 µM)	3.91 µg/mL (≈ 16.4 µM)	7.81 µg/mL (≈ 32.8 µM)	125 µg/mL (≈ 525 µM)	7.81 µg/mL (≈ 32.8 µM)	15.6 µg/mL (≈ 65.6 µM)	MIC [2]: 62.5 µg/mL (≈ 262 µM); MBC [3]: 125 µg/mL (≈ 525 µM); MBC [6]: 15.6 µg/mL (≈ 65.6 µM); MIC [7]: 3.91 µg/mL (≈ 16.4 µM); MIC [8]: 3.91 µg/mL (≈ 16.4 µM); MIC [9]: 7.81 µg/mL (≈ 32.8 µM); MBC [9]: 15.6 µg/mL (≈ 65.6 µM); MBC [10]: > 1000 µg/mL; MBC [12]: 15.6 µg/mL (≈ 65.6 µM); MBC [13]: 31.2 µg/mL (≈ 131 µM)
